Assay results from PMC12775434, “Ultra-large virtual screening unveils potent agonists of the neuromodulatory orphan receptor GPR139” (Nature Communications, 2025).
“And” between values parts separate entries of the source, which are not always exact repeats. Equal values may be shown once. Each block holds one molecule with its values, some of them ahead of it.

Tests used:
GPR139 [1] = target: T1, GPR139 (Homo sapiens, UniProt Q6DWJ6); test: Ca2+ mobilization assay, antagonist mode (EC80 800 nM Lundbeck Cmp 1a after 20 min preincubation), GPR139-CHOk1; format: cell-based; settings: individual replicates (Supplementary Figure 1)
T1 sequence (Q6DWJ6 1-353): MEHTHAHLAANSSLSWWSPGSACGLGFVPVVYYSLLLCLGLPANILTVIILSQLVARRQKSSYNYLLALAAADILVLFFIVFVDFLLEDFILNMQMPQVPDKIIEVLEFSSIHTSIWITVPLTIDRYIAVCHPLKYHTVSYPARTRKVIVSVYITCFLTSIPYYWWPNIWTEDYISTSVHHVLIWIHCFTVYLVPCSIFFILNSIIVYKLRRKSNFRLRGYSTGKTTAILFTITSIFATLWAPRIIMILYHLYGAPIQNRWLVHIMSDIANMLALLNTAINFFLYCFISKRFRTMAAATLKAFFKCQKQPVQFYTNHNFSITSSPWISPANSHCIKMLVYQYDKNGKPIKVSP
Outline: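 Antagonist mode: 800 nM (EC80) reference agonist Lundbeck Cmp 1a added following 20 min pre-incubation with 10 µM compound. GPR139-CHOk1 cells, Fluo-4 dye, probenecid-containing HEPES buffer pH 7.4; intracellular Ca2+ measured at 37 °C (ex 485, em 525 nm).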

GPR139 [2] = target: T1, GPR139; test: Inositol monophosphate (IP1) accumulation assay, GPR139-CHOk1; format: cell-based; settings: for IP1 response (% of Cmp 1a): replicate experiments; for EC50: read-out: pEC50 IP1 (converted)
Description: Primary screening and pharmacological characterization of compounds were performed using a CHO-K1 cell line that stably expresses human GPR139 (GPR139-CHOk1). The GPR139-CHOk1 cell line was kindly provided by H. Lundbeck A/S, Denmark[24]. GPR139-CHOk1 cells were grown in Ham’s F-12 Kaighn’s Modification Medium (ThermoFisher #21127030) supplemented with 10% dialyzed fetal bovine serum (US origin, ThermoFisher #26400044), 100 units/mL Penicillin-Streptomycin (ThermoFisher #15140122), and 1 mg/mL Geneticin (ThermoFisher #11811031). […] M1R-CHOk1 cells were purchased from The Missouri S&T cDNA Resource Center (#CEM100TN00). M1R-CHOk1 cells were grown in Ham’s F12 Medium (ThermoFisher #21765029) supplemented with 10% fetal bovine serum (Brazilian origin, ThermoFisher #10270106), 100 units/mL Penicillin-Streptomycin, and 0.25 mg/mL Geneticin. HEK293A cells transiently transfected with GPR139 were used for additional pharmacological assessment of signaling pathways activated by GPR139. HEK239A cells were generously provided by Dr. Asuka Inoue, Tohoku University, Japan. HEK293A cells were grown in Dulbecco’s Modified Eagle Medium (ThermoFisher #31966047) supplemented with 10% dialyzed fetal bovine serum and 100 units/mL Penicillin-Streptomycin. Cell lines were maintained at 37 °C in humidified incubator equilibrated with 5% CO2.
HTRF IP-One Gq kit (Cisbio #62IPAPEC) was used to detect the accumulation of inositol monophosphate (IP1) as described in the work by Shehata et al.[26]. GPR139-CHOk1 cells were dissociated and resuspended in HEPES buffer. 50,000 cells in 5 µL and 5 µL test compounds diluted from DMSO stocks (final DMSO concentration of maximally 0.3%) in HEPES buffer supplemented with 40 mM LiCl were mixed in each well of white 384-well OptiPlate (PerkinElmer #6007290). The cells were incubated for 1 h at 37 °C. Then, 10 µL detection reagent composed of 2.5% Eu3 + -anti-IP1 antibody and 2.5% IP1-d2 diluted in lysis buffer was added, and the cells were incubated for 1 h at room temperature before measurements. Measurements were performed on EnVision Multimode Plate Reader (PerkinElmer) using excitation light of 340 nm and emission light of 615 nm and 665 nm. The time resolved-fluorescence resonance energy transfer (TR-FRET) 665 nm/615 nm ratio, which is inversely proportional to the IP1 accumulation, was used to determine the IP1 response.
Pharmacological data and statistical analyses were performed in GraphPad Prism v9–10 (Graphpad Software Inc., San Diego, CA), which are also specifically described in the figure and table legends. The functional assay responses were normalized to buffer (0%) and Lundbeck Cmp 1a or JNJ-63533054 (100%), for Ca^2+ and IP1 experiments in the GPR139-CHOk1 stable cell line or Ca^2+, G protein activation, and arrestin-3 recruitment experiments in the HEK293A cells transiently transfected with GPR139, respectively. Data are from at least three independent experiments, unless stated otherwise. Concentration-response curves were fitted applying non-linear regression using the log (agonist) versus response model with variable slope. ANOVA was applied for comparing results and determining statistical significance. Comparison of responses to the reference was performed using one-way ANOVA with Dunnett’s multiple comparisons test at significance threshold of p < 0.05. Comparison of responses across assays and ligands was performed using two-way ANOVA with Tukey’s multiple comparisons test at a significance threshold of p < 0.05.

EC50 (GPR139 [2]): 50.1 µM
SMILES: Cc1noc(C(C)NC(=O)Nc2cccc(-c3ccccc3)c2)n1 (stereo not drawn) [Compound 3, CC(NC(=O)NC=1C=CC=C(C1)C=2C=CC=CC2)C3=NC(C)=NO3]
Ca2+ signal (% of Cmp 1a) (GPR139 [1]): 29.8327 % of Cmp 1a and 24.7661 % of Cmp 1a and 29.9717 % of Cmp 1a | IP1 response (% of Cmp 1a) (GPR139 [2]; log [Compound] M -4.5): 41 % of Cmp 1a and 46 % of Cmp 1a and 42 % of Cmp 1a | IP1 response (% of Cmp 1a) (GPR139 [2]; log [Compound] M -5.0): 22 % of Cmp 1a and 29 % of Cmp 1a and 28 % of Cmp 1a | IP1 response (% of Cmp 1a) (GPR139 [2]; log [Compound] M -5.5): 8 % of Cmp 1a and 12 % of Cmp 1a and 10 % of Cmp 1a | IP1 response (% of Cmp 1a) (GPR139 [2]; log [Compound] M -6.0): 0.417 % of Cmp 1a and 2.14 % of Cmp 1a and 6 % of Cmp 1a | IP1 response (% of Cmp 1a) (GPR139 [2]; log [Compound] M -6.5): -2.63 % of Cmp 1a and 1.42 % of Cmp 1a and -1.19 % of Cmp 1a | IP1 response (% of Cmp 1a) (GPR139 [2]; log [Compound] M -7.0): -0.0724 % of Cmp 1a and 2 % of Cmp 1a and 0.325 % of Cmp 1a | IP1 response (% of Cmp 1a) (GPR139 [2]; log [Compound] M -7.5): -1.11 % of Cmp 1a and -1.52 % of Cmp 1a and 2 % of Cmp 1a | IP1 response (% of Cmp 1a) (GPR139 [2]; log [Compound] M -8.0): -0.434 % of Cmp 1a and 0.295 % of Cmp 1a and 1.29 % of Cmp 1a

SMILES: Cc1noc(CNC(=O)C2(C)CCCCN2C(=O)c2ccccc2)n1 (stereo not drawn) [Compound 4, CC1=NOC(CNC(=O)C2(C)CCCCN2C(=O)C=3C=CC=CC3)=N1]
Ca2+ signal (% of Cmp 1a) (GPR139 [1]): 35.6047 % of Cmp 1a and 34.6013 % of Cmp 1a and 39.6569 % of Cmp 1a | IP1 response (% of Cmp 1a) (GPR139 [2]; log [Compound] M -4.5): 109 % of Cmp 1a and 91 % of Cmp 1a and 86 % of Cmp 1a | IP1 response (% of Cmp 1a) (GPR139 [2]; log [Compound] M -5.0): 40 % of Cmp 1a and 36 % of Cmp 1a and 37 % of Cmp 1a | IP1 response (% of Cmp 1a) (GPR139 [2]; log [Compound] M -5.5): 13 % of Cmp 1a and 11 % of Cmp 1a and 14 % of Cmp 1a | IP1 response (% of Cmp 1a) (GPR139 [2]; log [Compound] M -6.0): 6.46 % of Cmp 1a and 2.74 % of Cmp 1a and 2.36 % of Cmp 1a | IP1 response (% of Cmp 1a) (GPR139 [2]; log [Compound] M -6.5): -0.931 % of Cmp 1a and -1.18 % of Cmp 1a and 0.0496 % of Cmp 1a | IP1 response (% of Cmp 1a) (GPR139 [2]; log [Compound] M -7.0): 3.23 % of Cmp 1a and -0.893 % of Cmp 1a and -2.41 % of Cmp 1a | IP1 response (% of Cmp 1a) (GPR139 [2]; log [Compound] M -7.5): 2.42 % of Cmp 1a and -4 % of Cmp 1a and -2.57 % of Cmp 1a | IP1 response (% of Cmp 1a) (GPR139 [2]; log [Compound] M -8.0): 1.1 % of Cmp 1a and -0.196 % of Cmp 1a and -1.07 % of Cmp 1a | EC50 (GPR139 [2]): 12.6 µM

IP1 response (% of Cmp 1a) (GPR139 [2]; log [Compound] M -5.5): 13 % of Cmp 1a (2×) and 9 % of Cmp 1a | EC50 (GPR139 [2]): 25.1 µM
SMILES: CC(NC(=O)Cn1cncc(-c2ccccc2)c1=O)c1ccccc1 (stereo not drawn) [Compound 5, C[C@@H](NC(=O)CN1C=NC=C(C=2C=CC=CC2)C1=O)C=3C=CC=CC3]
Ca2+ signal (% of Cmp 1a) (GPR139 [1]): 38.6236 % of Cmp 1a and 37.7276 % of Cmp 1a and 30.4652 % of Cmp 1a | IP1 response (% of Cmp 1a) (GPR139 [2]; log [Compound] M -4.5): 68 % of Cmp 1a and 53 % of Cmp 1a and 56 % of Cmp 1a | IP1 response (% of Cmp 1a) (GPR139 [2]; log [Compound] M -5.0): 33 % of Cmp 1a and 17 % of Cmp 1a and 31 % of Cmp 1a | IP1 response (% of Cmp 1a) (GPR139 [2]; log [Compound] M -6.0): 7 % of Cmp 1a and -0.0762 % of Cmp 1a and 3.67 % of Cmp 1a | IP1 response (% of Cmp 1a) (GPR139 [2]; log [Compound] M -6.5): -1.74 % of Cmp 1a and -4 % of Cmp 1a and 0.455 % of Cmp 1a | IP1 response (% of Cmp 1a) (GPR139 [2]; log [Compound] M -7.0): 2.62 % of Cmp 1a and -1.59 % of Cmp 1a and -2.51 % of Cmp 1a | IP1 response (% of Cmp 1a) (GPR139 [2]; log [Compound] M -7.5): 0.67 % of Cmp 1a and -2.55 % of Cmp 1a and -3 % of Cmp 1a | IP1 response (% of Cmp 1a) (GPR139 [2]; log [Compound] M -8.0): -0.409 % of Cmp 1a and -3 % of Cmp 1a and -0.447 % of Cmp 1a
